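Cells were grown in 96-well plates and exposed to each compound for 48 hours at five concentrations; endpoints were interpolated linearly between bracketing concentrations, or set to the highest concentration if not reached. GI50: concentration for 50% inhibition of growth.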 The source made the active and inactive calls. Rule as the data show it: active = GI50 up to about 1.1 µM and inactive = higher.
Assays:
Assay in all cases: NCI tumour cell line growth inhibition, 48 h
SK-MEL-2 = system: SK-MEL-2
UO-31 = system: UO-31
OVCAR-3 = system: OVCAR-3
COLO 205 = system: COLO 205
HOP-92 = system: HOP-92
HOP-62 = system: HOP-62
NCI-H226 = system: NCI-H226
MOLT-4 = system: MOLT-4
SF-268 = system: SF-268
LOX IMVI = system: LOX IMVI
A498 = system: A498
SK-OV-3 = system: SK-OV-3
DLD-1 = system: DLD-1
OVCAR-4 = system: OVCAR-4
TK-10 = system: TK-10
U-251 = system: U-251
UACC-62 = system: UACC-62
SNB-19 = system: SNB-19
NCI-H522 = system: NCI-H522

| Compound | GI50 (SK-MEL-2) | GI50 (UO-31) | GI50 (OVCAR-3) | GI50 (COLO 205) | GI50 (HOP-92) | GI50 (HOP-62) | GI50 (NCI-H226) | GI50 (MOLT-4) | GI50 (SF-268) | GI50 (LOX IMVI) | GI50 (A498) | GI50 (SK-OV-3) | GI50 (DLD-1) | GI50 (OVCAR-4) | GI50 (TK-10) | GI50 (U-251) | GI50 (UACC-62) | GI50 (SNB-19) | GI50 (NCI-H522) |
| --- | --- | --- | --- | --- | --- | --- | --- | --- | --- | --- | --- | --- | --- | --- | --- | --- | --- | --- | --- |
| CC(C)(C)C(=O)C(c1ccc(-c2cscn2)cc1)c1ccc(-c2cscn2)cc1 | 21.4 µM (inactive) | 44.4 µM (inactive) | 28.1 µM (inactive) | > 89.7 µM (inactive) | 9.55 µM (inactive) | 18.5 µM (inactive) | > 49.7 µM (inactive) | > 100 µM (inactive) | 25.5 µM (inactive) | > 69.2 µM (inactive) | 21.9 µM (inactive) | 29.8 µM (inactive) | > 79.6 µM (inactive) | 3.25 µM (inactive) | 31.9 µM (inactive) | 20.7 µM (inactive) | 21.7 µM (inactive) | 28.1 µM (inactive) | 22.8 µM (inactive) |
| Cc1ccc(NC(=O)CC2Sc3ccccc3NC2=O)c(C)c1 (centres undefined) | 4.56 µM (inactive) | 13 µM (inactive) | 12.2 µM (inactive) | 8.55 µM (inactive) | 17.4 µM (inactive) | 12.1 µM (inactive) | 14.8 µM (inactive) | 6.71 µM (inactive) | 21.4 µM (inactive) | 19.6 µM (inactive) | 14 µM (inactive) | 15.5 µM (inactive) | 8.15 µM (inactive) | 22 µM (inactive) | 20.2 µM (inactive) | 14 µM (inactive) | 12.2 µM (inactive) | 14.7 µM (inactive) | 11.4 µM (inactive) |
| CCN(CC)CC(C(=O)Nc1c(C)cccc1C)/C(C)=N\NC(=S)NN (centres undefined) | > 100 µM (inactive) | > 100 µM (inactive) | > 100 µM (inactive) | > 100 µM (inactive) | > 100 µM (inactive) | > 100 µM (inactive) | > 100 µM (inactive) | > 100 µM (inactive) | > 100 µM (inactive) | > 100 µM (inactive) | > 100 µM (inactive) | > 100 µM (inactive) | > 100 µM (inactive) | – | > 100 µM (inactive) | > 100 µM (inactive) | > 100 µM (inactive) | – | > 100 µM (inactive) |
| CCOC(=O)NC(=O)c1cn(C2CCCCC2)c(=O)[nH]c1=O | > 100 µM (inactive) | 56 µM (inactive) | > 100 µM (inactive) | 98.9 µM (inactive) | > 100 µM (inactive) | 38 µM (inactive) | > 100 µM (inactive) | 41.8 µM (inactive) | > 100 µM (inactive) | 9.75 µM (inactive) | 85.3 µM (inactive) | 77.3 µM (inactive) | 61.8 µM (inactive) | 67.6 µM (inactive) | > 100 µM (inactive) | 56.8 µM (inactive) | 40 µM (inactive) | > 100 µM (inactive) | > 100 µM (inactive) |
| CS/C(=N\c1nccs1)NC(=O)c1cccc(Cl)c1 | > 100 µM (inactive) | 62.4 µM (inactive) | 75.2 µM (inactive) | 46.1 µM (inactive) | 71.3 µM (inactive) | > 100 µM (inactive) | > 100 µM (inactive) | 31 µM (inactive) | > 100 µM (inactive) | 83.6 µM (inactive) | 81.8 µM (inactive) | > 100 µM (inactive) | > 100 µM (inactive) | 68.1 µM (inactive) | 73.5 µM (inactive) | 72.1 µM (inactive) | > 100 µM (inactive) | > 100 µM (inactive) | 34.4 µM (inactive) |
| NC(CCSCC(F)F)C(=O)O (centres undefined) | – | > 100 µM (inactive) | > 100 µM (inactive) | > 100 µM (inactive) | > 100 µM (inactive) | > 100 µM (inactive) | > 100 µM (inactive) | > 100 µM (inactive) | > 100 µM (inactive) | > 100 µM (inactive) | > 100 µM (inactive) | – | > 100 µM (inactive) | > 100 µM (inactive) | > 100 µM (inactive) | > 100 µM (inactive) | > 100 µM (inactive) | > 100 µM (inactive) | > 100 µM (inactive) |
| CCOC(=O)C(=O)Nc1nc2ccc(OC)cc2s1 | > 100 µM (inactive) | > 100 µM (inactive) | > 100 µM (inactive) | > 100 µM (inactive) | > 100 µM (inactive) | > 100 µM (inactive) | > 100 µM (inactive) | > 100 µM (inactive) | > 100 µM (inactive) | > 100 µM (inactive) | > 100 µM (inactive) | > 100 µM (inactive) | > 100 µM (inactive) | > 100 µM (inactive) | > 100 µM (inactive) | > 100 µM (inactive) | > 100 µM (inactive) | > 100 µM (inactive) | > 10 µM (inactive) |
| O=C1C2Nc3ccccc3SC2C(=O)N1c1ccc(Br)cc1 (centres undefined) | 17.7 µM (inactive) | 18.4 µM (inactive) | 23.7 µM (inactive) | 55.5 µM (inactive) | 10.9 µM (inactive) | 17.1 µM (inactive) | 7.24 µM (inactive) | 25.4 µM (inactive) | 73.1 µM (inactive) | 27.9 µM (inactive) | 26 µM (inactive) | 15.6 µM (inactive) | 15.2 µM (inactive) | 12.8 µM (inactive) | 28.8 µM (inactive) | – | 20 µM (inactive) | 34.3 µM (inactive) | 21.7 µM (inactive) |
| COc1cc([C@@H]2c3cc4c(cc3[C@@H](NC(=O)c3cccc(F)c3)C3COC(=O)[C@@H]32)OCO4)cc(OC)c1O (some centres undefined) | 4.46 µM (inactive) | 2.99 µM (inactive) | 3.6 µM (inactive) | 3.52 µM (inactive) | 2.74 µM (inactive) | 0.195 µM (active) | 0.207 µM (active) | < 0.01 µM (active) | 1.61 µM (inactive) | 0.698 µM (active) | 1.27 µM (inactive) | 1.26 µM (inactive) | 2.32 µM (inactive) | 38.5 µM (inactive) | 3.35 µM (inactive) | 0.109 µM (active) | 0.385 µM (active) | 0.664 µM (active) | 1.4 µM (inactive) |
| c1c[nH]c(Cc2nc(Cc3c[nH]cn3)c[nH]2)n1 | 13.7 µM (inactive) | – | 55.8 µM (inactive) | 5.37 µM (inactive) | 22 µM (inactive) | 17.5 µM (inactive) | 11.2 µM (inactive) | 3.48 µM (inactive) | 4.65 µM (inactive) | 16.5 µM (inactive) | 9.79 µM (inactive) | 9.29 µM (inactive) | 4.22 µM (inactive) | 4.45 µM (inactive) | 67.5 µM (inactive) | 34 µM (inactive) | 19.8 µM (inactive) | 22.5 µM (inactive) | 12.2 µM (inactive) |
| COc1cc2c[n+]3ccc4cc(OC)c(OC)cc4c3cc2cc1O | > 100 µM (inactive) | > 100 µM (inactive) | – | – | > 100 µM (inactive) | – | – | > 100 µM (inactive) | > 100 µM (inactive) | > 100 µM (inactive) | > 100 µM (inactive) | > 100 µM (inactive) | > 100 µM (inactive) | – | > 100 µM (inactive) | > 100 µM (inactive) | > 100 µM (inactive) | > 100 µM (inactive) | > 100 µM (inactive) |
| Cc1ccc(Cl)c(NC(=O)C(=O)C(C(=O)c2ccncc2)C2OC(=O)c3ccccc32)c1 (centres undefined) | – | > 100 µM (inactive) | – | > 100 µM (inactive) | > 100 µM (inactive) | > 100 µM (inactive) | > 100 µM (inactive) | – | > 100 µM (inactive) | > 100 µM (inactive) | > 100 µM (inactive) | > 100 µM (inactive) | > 100 µM (inactive) | > 100 µM (inactive) | > 100 µM (inactive) | > 100 µM (inactive) | > 100 µM (inactive) | – | > 100 µM (inactive) |
| Cc1cc(C(=O)N2CCN(Cc3ccccc3)CC2)c(C)o1 | – | > 100 µM (inactive) | > 100 µM (inactive) | – | > 100 µM (inactive) | > 100 µM (inactive) | – | > 100 µM (inactive) | > 100 µM (inactive) | > 100 µM (inactive) | > 100 µM (inactive) | > 100 µM (inactive) | > 100 µM (inactive) | > 100 µM (inactive) | > 100 µM (inactive) | > 100 µM (inactive) | > 100 µM (inactive) | > 100 µM (inactive) | > 100 µM (inactive) |

Source: ChEMBL document CHEMBL1201862, “PubChem BioAssay data set” (2004)
